For data set [1], the system named is EPNT-5 cells. Description: Colony formation assay, EPNT-5 cells. It is filed as cell-based, mouse. The following applies: 10 days. The protocol: (§1) U87, U118 and EPNT-5 cells were seeded at a density of 200 cells/well in 96-well plates and treated with increasing concentrations of compound 7 (0–1,000 nM) dissolved in 10% FBS-containing DMEM (n = 5). On day 10, colonies were fixed with 4% formaldehyde and stained with crystal violet dye (0.1% w/v). Images were captured using the iBright 1,500 Imaging System (Invitrogen, USA) and the area of colonies with a minimum diameter of 100 µm was calculated using ImageJ. In the case of overlapping colonies, their total area was calculated. Finally, the area of the formed cell colonies was summed and normalized to the total colony area in the control.

Data set [2] deals with U87 glioblastoma cells. Description: MTT cell viability assay, U87 cells, 48 h. It counts as cell-based, human. Here is the method: Cells were seeded in quadruplicate in 96-well plates at 10,000 cells/well and allowed to adhere overnight. The medium was then replaced with serum-free DMEM containing increasing concentrations of soloxolone amides for 48 h. After incubation, 3-(4,5-dimethylthiazol-2-yl)-2,5-diphenyltetrazolium bromide (MTT dye) was added at a final concentration of 0.5 mg/mL and left for 2 h. The resulting formazan crystals were dissolved in DMSO and the optical density was measured at 570 nm using a Multiscan RC plate reader (Thermo LabSystems, Helsinki, Finland).
On the technique in general: Tetrazolium dyes change colour on reduction, which living cells bring about.

Data set [3] has as its system U87 cells. The experiment in a line: MTT assay 72 h, 7 and TMZ alone and combined, synergy (HSA), U87. It counts as cell-based, human. Here is the method: The drug synergy score was calculated for the dose-response matrix according to the highest single-agent (HSA) model using the SynergyFinder + web application (https://www.synergyfinder.org/).
For data set [4], the system named is U118 cells. Description: Annexin V-FITC/propidium iodide flow cytometry, U118, 48 h. It is filed as cell-based, human. Here is the method:
To observe apoptosis and necrosis, U87 and U118 cells were stained with Annexin V-FITC and propidium iodide (ab14085; Abcam, Inc., Cambridge, MA, USA) after 48 h of incubation with compound 7 (0–2000 nM) according to the manufacturer’s protocol (n = 3). To quantify the total proportion of apoptotic cells in control and experimental groups, the events accumulated in the lower right quadrant (early apoptosis) and upper right quadrant (late apoptosis) were summarized.
After staining, 10,000 cells per sample were analyzed on a NovoCyte flow cytometer using NovoExpress software (ACEA Biosciences, Inc., USA).
Background: Flow cytometry measures light scatter and fluorescence of single cells or particles in a stream.

Data set [5] relates to U87 cells. Description: Colony formation assay, U87 cells. It is filed as cell-based, human. To be noted: 10 days. Here is the method:
as §1

Data set [6] concerns U87 glioblastoma tumor tissue. The experiment in a line: Histology and immunohistochemistry of U87 xenograft tumors. It is filed as in vivo, athymic nude mice. To be noted: day 19. Here is the method: For the histological study, the tumor specimens were fixed in 10% neutral-buffered formalin (BioVitrum, Moscow, Russia), dehydrated in ascending ethanols and xylols and embedded in HISTOMIX paraffin (BioVitrum, Russia). The paraffin sections (3–4 µm) were sliced on a Microm HM 355S microtome (Thermo Fisher Scientific, Waltham, MA, USA) and stained with hematoxylin and eosin.
For the immunohistochemical study, the tumor sections were deparaffinized and rehydrated. Antigen retrieval was carried out after exposure in a microwave oven at 700 W. The samples were incubated with anti-Ki-67 (ab16667, Abcam, Boston, MA, USA) (n = 3), anti-GFAP (ab194325, Abcam, USA) (n = 3), and anti-N-cadherin (ab76011, Abcam, USA) (n = 3) primary antibodies according to the manufacturer’s protocol. Then, the sections were incubated with secondary horseradish peroxidase (HPR)-conjugated antibodies, exposed to the 3,30-diaminobenzidine (DAB) substrate (Rabbit Specific HRP/DAB (ABC) Detection IHC Kit, ab64261, Abcam, USA) and stained with Mayer’s hematoxylin.
Five to ten random fields were examined from the tumor specimens of three mice in each group, for a total of 15–30 test fields.

Data set [7] concerns TGF-β1-induced U87 cells. Description: Cell morphology (cell size) of TGF-β1-induced U87 cells. It counts as cell-based, human. To be noted: TGF-β1 50 ng/mL, non-toxic concentrations, 48 h. The protocol:
After seeding at a concentration of 5,000 cells/well in triplicate in 96-well plates and incubating overnight, U87 and U118 cells were exposed to TGF-β1 (50 ng/mL) and non-toxic concentrations of soloxolone amides for 48 h. An EVOS XL Core microscope with an integrated CMOS camera (Thermo Fisher Scientific, USA) was then used to examine cell morphology at ×20 magnification. Aspect ratio (AR) and area were quantified for at least 150 cells in each experimental group using ImageJ software (NIH, USA).

The nature of data set [8]: Toxicity assessment in U87 glioblastoma-bearing mice. It counts as in vivo, athymic nude mice. The following applies: 7 20 mg/kg i.p. or TMZ 10 mg/kg i.p. injected alone. Here is the method: During the experiment, the general status and body weight of the animals were monitored. At the end of the experiment, livers and kidneys were collected and organ indices were calculated as (organ weight/body weight) × 100%, followed by the normalization of organ indices of experimental mice to organ indices of control mice.

Data set [9] relates to TGF-β1-treated U87 cells. The experiment in a line: Adhesion of U87 cells to culture plastic (TrypLE treatment assay). It counts as cell-based, human. To be noted: TGF-β1 50 ng/mL, non-toxic concentrations, 48 h. Here is the method:
Adhesiveness of glioblastoma cells was assessed by two independent methods. First, cell adhesion to culture plastic was tested using a trypsin treatment assay, as previously described ([Sava et al., 2004]; [Mazuryk et al., 2015]; [van Dijk et al., 2017]). Briefly, U87 and U118 cells (10,000 cells per well of a 96-well plate, n = 4) were cultured with TGF-β1 (50 ng/mL) and non-toxic concentrations of soloxolone amides for 48 h and then treated with a 1:20 dilution of TrypLE Express (Gibco, USA) in PBS for 3 min at 37°C. Non-adherent cells were then removed by a triple PBS wash, and the remaining adherent cells were fixed with 4% formaldehyde and stained with crystal violet dye (0.1% w/v). Images were captured using the iBright 1,500 Imaging System (Invitrogen, USA), and the cell-occupied area was calculated using ImageJ. Alternatively, the number of adherent cells was quantified using the MTT assay.

Results on one molecule are retold here after publication PMC11317440, “Soloxolone para-methylanilide effectively suppresses aggressive phenotype of glioblastoma cells including TGF-β1-induced glial-mesenchymal transition in vitro and inhibits growth of U87 glioblastoma xenografts in mice” (Frontiers in Pharmacology, 2024).

The inhibition is the percentage by which the read-out fell short of the control. The low end stands for a response near the control, the high end for a response far below the control. Usually IC50 stands for the concentration that inhibits the measured activity by half.

Regarding `Cc1ccc(NC(=O)[C@@]2(C)CC[C@]3(C)CC[C@]4(C)[C@H](C(=O)C=C5[C@@]6(C)C=C(C#N)C(=O)C(C)(C)C6CC[C@]54C)[C@@H]3C2)cc1` (some centres unmarked) [compound 7, N-p-tolyl-2-cyano-3,12-dioxo-18βH-olean-9(11),1(2)-dien-30-amide], the colony growth result in data set [1] (EPNT-5, 7 450 nM) is “complete abrogation of colony growth”; in data set [1] (EPNT-5, 7 1,000 nM) it was “complete abrogation of colony growth”. For the same molecule, the inhibition at 0.05 µM in [1] (Mus musculus, 240 h, EPNT-5, 7 50 nM) stood at 56.1%; in [5] (Homo sapiens, U-87 MG, 240 h, U87, 7 50 nM), 48.7%. The inhibition at 0.1 µM in data set [1] (Mus musculus, 240 h, EPNT-5, 7 100 nM) was 69%; in [5] (Homo sapiens, U-87 MG, 240 h, U87, 7 100 nM), 74.2%. Also, in data set [2] (48 h of incubation, U87), the relative cytotoxicity entry is “high”. Further, the half-maximal inhibitory concentration (IC50) was determined as 161 nM in [2] (Homo sapiens, U-87 MG, 48 h) and 197 nM in data set [3] (Homo sapiens, U-87 MG, MTT). Besides, the MNTC in [2] (Homo sapiens, U-87 MG, 48 h, read-out: non-toxic concentration that reduced U87 cell viability by less than 10%) came to 50 nM. For the same molecule, the “reduction of the cytotoxic effect by NAC” value in data set [3] (U87, NAC 2 mM, TMZ 125 μM, 7 100 nM) is given as 56.2%. The “percentage of cells in the right quadrants (apoptosis)” value in [4] (U118, 7 450 nM) turned out to be 82.5%; in data set [4] (U118, 7 1,000 nM), 95.6%; in [4] (U118, 7 2000 nM), 96.4%. In addition, the “percentage of necrotic cells” value in data set [4] (U118, at any concentration of 7 (450-2000 nM)) is no more than 3.5%. Besides, the colony area was 51.3% in data set [5] (U87, 7 50 nM) and 3.9% in [5] (U87, 7 1,000 nM). For the same molecule, the “N-cadherin and GFAP levels in tumor sections (immunohistochemistry)” value in [6] is on record as “significantly reduced their levels”. In addition, in [6], the “reduction in the numerical density of Ki-67-positive cells compared to vehicle” value is listed as 4 fold. Besides, the “effect on size/morphology of TGF-β1-induced U87 cells” value in data set [7] is “restored their morphological characteristics to the control cells”. Further, the “toxic effects (body weight and organ indices)” value in [8] is reported as “no toxic effects”. In addition, in data set [9], the “adhesion of TGF-β1-treated U87 cells to culture plastic (MTT readout)” value is on record as “one of the most pronounced pro-adhesive effects”. Further, the “adhesion of TGF-β1-treated U87 cells to culture plastic (crystal violet)” value in data set [9] is given as “restoring it to control levels”.
